Values of other authors as cited in patent US6022703A, “Expression of DNA sequences derived from nocardioform microorganisms” (Genzyme Corporation, priority 1993, dated 2000).

Tested on: Nocardioform cholesterol oxidase
Conditions: at 25°

## CC(C)CCC[C@@H](C)[C@H]1CC[C@H]2[C@@H]3CC=C4C[C@@H](O)CC[C@]4(C)[C@H]3CC[C@]12C [cholesterol]
  Km: 14 µM
